In patent publication US11957716B2 (Immatics Biotechnologies GmbH, priority 2021, dated 2024):

Key:
HLA-A*03:01 = HLA-A*03:01 (Homo sapiens, UniProt P04439); experiment: MHC binding assay, UV-ligand exchange ELISA; conditions: peptide exchange yield, binding to HLA-A*03:01
Text: Candidate peptides for T cell based therapies according to the present invention were further tested for their MHC binding capacity (affinity). The individual peptide-MHC complexes were produced by UV-ligand exchange, where a UV-sensitive peptide is cleaved upon UV-irradiation and exchanged with the peptide of interest as analyzed. Only peptide candidates that can effectively bind and stabilize the peptide-receptive MHC molecules prevent dissociation of the MHC complexes. To determine the yield of the exchange reaction, an ELISA was performed based on the detection of the light chain (β2m) of stabilized MHC complexes. The assay was performed as generally described in Rodenko et al. (Rodenko et al., 2006).
96 well MAXISorp plates (NUNC) were coated over night with 2 μg/ml streptavidin in PBS at room temperature, washed 4× and blocked for 1 h at 37° C. in 2% BSA containing blocking buffer. Refolded HLA-A*02:01/MLA-001 monomers served as standards, covering the range of 15-500 ng/ml. Peptide-MHC monomers of the UV-exchange reaction were diluted 100-fold in blocking buffer. Samples were incubated for 1 h at 37° C., washed four times, incubated with 2 μg/ml HRP conjugated anti-82m for 1 h at 37° C., washed again and detected with TMB solution that is stopped with […]. Absorption was measured at 450 nm. Candidate peptides that show a high exchange yield (preferably higher than 50%, most preferred higher than 75%) are generally preferred for a generation and production of antibodies or fragments thereof, and/or T cell receptors or fragments thereof, as they show sufficient avidity to the MHC molecules and prevent dissociation of the MHC complexes.

[1] = system: HLA-A*01:01, HLA-A*02:01, HLA-A*03:01, HLA-A*24:02, HLA-B*07:02, HLA-B*08:01 and HLA-B*44:02; experiment: HLA alleles the peptides bind to (Table 7); assay type: binding, human; conditions: allotype from the group HLA-A*01:01, HLA-A*02:01, HLA-A*03:01, HLA-A*24:02, HLA-B*07:02, HLA-B*08:01, HLA-B*44:02
Text: However, due to similarities in binding pattern such as the relevant anchoring positions some peptides bind to more than one allele, such an overlap is most likely, but not limited to, HLA-A*01 binding peptides also binding to HLA-B*15, HLA-A*03 binding peptides also binding to HLA-A*11, HLA-B*07 binding peptides also binding to HLA-B*35 and HLA-B*51.

Substance	Peptide exchange (HLA-A*03:01)	Binders (HLA alleles the peptides according to the invention bind to) [1]
25 (GVCSTLTIK; listed as Homo sapiens) [compound 25]	++++ (≥75% = ++++)	HLA-A*03:01
29 (GTFIAPVMK; listed as Homo sapiens) [compound 29]	++++ (≥75% = ++++)	HLA-A*03:01
159 (ASAIPAGAK; listed as Homo sapiens) [compound 159]	+++ (≥50% = +++)	HLA-A*03:01
150 (IVFLLQQGEK; listed as Homo sapiens) [compound 150]	+++ (≥50% = +++)	HLA-A*03:01
101 (ATNSFLLIK; listed as Homo sapiens) [compound 101]	++++ (≥75% = ++++)	HLA-A*03:01
143 (AVLGALLRH; listed as Homo sapiens) [compound 143]	++++ (≥75% = ++++)	HLA-A*03:01
24 (LIYIPTNSIYK; listed as Homo sapiens) [compound 24]	++++ (≥75% = ++++)	HLA-A*03:01
44 (SLFPYFLNK; listed as Homo sapiens) [compound 44]	++++ (≥75% = ++++)	HLA-A*03:01
209 (AILLPQLPK; listed as Homo sapiens) [compound 209]	++++ (≥75% = ++++)	HLA-A*03:01
149 (SMNSKALRWK; listed as Homo sapiens) [compound 149]	+++ (≥50% = +++)	HLA-A*03:01
148 (SVYMATTLK; listed as Homo sapiens) [compound 148]	++++ (≥75% = ++++)	HLA-A*03:01
37 (RLYSGSSFLY; listed as Homo sapiens) [compound 37]	++++ (≥75% = ++++)	HLA-A*03:01
211 (VVTIVMHIYK; listed as Homo sapiens) [compound 211]	–	HLA-A*03:01
70 (LIAGLIFLK; listed as Homo sapiens) [compound 70]	+++ (≥50% = +++)	HLA-A*03:01
128 (MTFVPLLAR; listed as Homo sapiens) [compound 128]	++++ (≥75% = ++++)	HLA-A*03:01
90 (LALLGAPPPK; listed as Homo sapiens) [compound 90]	++ (≥20% = ++)	HLA-A*03:01
35 (SLATAISAK; listed as Homo sapiens) [compound 35]	+++ (≥50% = +++)	HLA-A*03:01
197 (HHTQLVFVF; listed as Homo sapiens) [compound 197]	–	HLA-A*24:02
61 (GLIAFAIFK; listed as Homo sapiens) [compound 61]	–	HLA-A*03:01
119 (VLHGLLFTL; listed as Homo sapiens) [compound 119]	–	HLA-A*02:01
79 (SLFRLSISF; listed as Homo sapiens) [compound 79]	–	HLA-A*24:02
172 (LLYKTLIIL; listed as Homo sapiens) [compound 172]	–	HLA-A*02:01
176 (AFLLSLISL; listed as Homo sapiens) [compound 176]	–	HLA-A*24:02
